The values that follow come from patent publication US7981903B2, “2-[2-{phenylamino}-1H-pyrrolo[2,3-D]pyrimidin-4-yl)amino] benzamide derivatives as IGF-1R inhibitors for the treatment of cancer” (GlaxoSmithKline LLC, priority 2007, dated 2011).

Assay [1] addresses T1, human IGF1R (hIGF1R) (Homo sapiens, UniProt P08069).
T1 construct: containing amino acid residues 957-1367 of human IGF1R; made in house; host or cells: Sf9 cells (baculovirus)
In words: TR-FRET kinase assay of purified hIGF1R. The class given is biochemical. As to conditions: activated hIGF1R 0.5 nM, 10 μM ATP, values given as pIC50 category, read-out: IGF-1R pIC50 (converted).

Assay [2] addresses T2, human IR (hIR) (Homo sapiens, UniProt P06213).
T2 construct: containing amino acid residues 979-1382 of human IR; made in house; host or cells: Sf9 cells (baculovirus), same process as hIGF1R
Put plainly: TR-FRET kinase assay of purified hIR. The class given is biochemical. As to conditions: activated hIR 0.5 nM, 10 μM ATP, values given as pIC50 category.

For assay [3], the target named is T3, NIH-3T3 cells overexpressing human IR (Homo sapiens, UniProt P06213).
T3 construct: expressed in transfected cells; host or cells: NIH-3T3 (mouse fibroblasts)
T3 sequence (P06213 28-1382): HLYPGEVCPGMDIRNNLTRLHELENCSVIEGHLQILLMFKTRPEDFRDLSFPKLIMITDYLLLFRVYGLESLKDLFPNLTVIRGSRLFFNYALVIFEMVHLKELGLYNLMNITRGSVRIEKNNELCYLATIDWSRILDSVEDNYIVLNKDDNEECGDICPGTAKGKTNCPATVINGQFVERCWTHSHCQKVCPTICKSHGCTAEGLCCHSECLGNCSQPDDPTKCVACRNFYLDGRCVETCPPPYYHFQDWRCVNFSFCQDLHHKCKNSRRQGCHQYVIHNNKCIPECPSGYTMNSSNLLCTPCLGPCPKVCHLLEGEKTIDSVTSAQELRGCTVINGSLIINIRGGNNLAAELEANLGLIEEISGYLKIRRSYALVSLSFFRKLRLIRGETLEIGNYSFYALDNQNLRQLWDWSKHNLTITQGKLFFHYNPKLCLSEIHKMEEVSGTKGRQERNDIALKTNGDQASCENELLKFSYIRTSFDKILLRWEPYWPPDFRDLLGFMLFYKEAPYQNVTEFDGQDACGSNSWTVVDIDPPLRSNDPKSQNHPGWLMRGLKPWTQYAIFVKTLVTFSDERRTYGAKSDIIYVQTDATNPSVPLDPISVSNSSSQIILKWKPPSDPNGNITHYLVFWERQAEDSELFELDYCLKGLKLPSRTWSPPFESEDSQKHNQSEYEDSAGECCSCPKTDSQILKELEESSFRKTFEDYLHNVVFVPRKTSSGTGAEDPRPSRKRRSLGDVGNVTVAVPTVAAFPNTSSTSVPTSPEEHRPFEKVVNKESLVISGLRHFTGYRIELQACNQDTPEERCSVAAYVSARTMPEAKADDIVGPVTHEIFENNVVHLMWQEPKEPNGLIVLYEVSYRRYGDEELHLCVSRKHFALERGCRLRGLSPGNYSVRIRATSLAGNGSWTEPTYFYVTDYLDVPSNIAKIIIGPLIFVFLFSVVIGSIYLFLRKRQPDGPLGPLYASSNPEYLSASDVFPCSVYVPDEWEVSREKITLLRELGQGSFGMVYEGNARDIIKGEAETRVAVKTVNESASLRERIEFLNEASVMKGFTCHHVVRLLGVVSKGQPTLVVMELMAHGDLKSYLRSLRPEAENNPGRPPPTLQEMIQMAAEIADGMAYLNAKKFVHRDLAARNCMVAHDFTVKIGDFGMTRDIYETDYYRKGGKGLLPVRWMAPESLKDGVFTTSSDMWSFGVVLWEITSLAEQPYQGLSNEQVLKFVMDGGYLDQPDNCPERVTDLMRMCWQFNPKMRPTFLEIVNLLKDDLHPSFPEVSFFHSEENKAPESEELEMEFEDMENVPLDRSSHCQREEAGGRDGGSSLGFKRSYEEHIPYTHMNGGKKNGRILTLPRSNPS
Put plainly: IR cellular autophosphorylation (DELFIA). The class given is cell-based. As to conditions: 2 h compound, insulin 3 ug/ml for 15 minutes, IC50 category. The procedure, abridged:
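Receptor autophosphorylation measured by DELFIA, capturing IGF-1R or IRβ and detecting with europium anti-pTyr, reported as percent of IGF-1- or insulin-stimulated signal. Compounds (30 uM to 1.5 nM) added 2 h before ligand, then 15 min stimulation (IGF-1 30 ng/ml or insulin 3 ug/ml).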

T1 sequence (P08069 957-1367): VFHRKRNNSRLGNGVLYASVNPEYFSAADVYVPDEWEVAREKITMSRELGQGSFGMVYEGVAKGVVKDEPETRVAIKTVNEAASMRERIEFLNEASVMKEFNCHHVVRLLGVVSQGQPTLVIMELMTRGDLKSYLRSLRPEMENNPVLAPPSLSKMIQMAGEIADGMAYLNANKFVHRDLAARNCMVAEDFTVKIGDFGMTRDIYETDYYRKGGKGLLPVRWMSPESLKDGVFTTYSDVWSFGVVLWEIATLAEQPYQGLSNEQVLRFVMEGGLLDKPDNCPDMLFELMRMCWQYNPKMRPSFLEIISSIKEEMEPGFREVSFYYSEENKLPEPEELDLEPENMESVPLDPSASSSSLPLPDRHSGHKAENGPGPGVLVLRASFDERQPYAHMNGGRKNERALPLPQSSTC
T2 sequence (P06213 979-1382): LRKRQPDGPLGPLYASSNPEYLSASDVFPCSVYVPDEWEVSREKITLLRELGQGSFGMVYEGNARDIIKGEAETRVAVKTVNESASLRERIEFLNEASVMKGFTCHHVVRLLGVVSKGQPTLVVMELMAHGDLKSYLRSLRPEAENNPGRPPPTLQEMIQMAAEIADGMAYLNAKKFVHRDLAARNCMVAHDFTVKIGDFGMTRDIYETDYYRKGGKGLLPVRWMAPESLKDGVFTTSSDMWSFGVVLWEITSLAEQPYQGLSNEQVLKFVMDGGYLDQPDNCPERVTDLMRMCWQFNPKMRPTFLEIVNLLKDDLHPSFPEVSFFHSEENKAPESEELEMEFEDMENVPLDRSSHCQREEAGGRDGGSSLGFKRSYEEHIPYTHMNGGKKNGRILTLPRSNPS

`COc1cc2c(cc1Nc1nc(Nc3cc(Cl)cc(F)c3C(N)=O)c3cc[nH]c3n1)N(C(=O)CN1CCCC1)CC2` [Example 175, 4-chloro-2-fluoro-6-[(2-{[5-(methyloxy)-1-(1-pyrrolidinylacetyl)-2,3-dihydro-1H-indol-6-yl]amino}-1H-pyrrolo[2,3-d]pyrimidin-4-yl)amino]benzamide]: the values for the IC50 in assay [1], in assay [2] and in assay [3] were 0.251 to 1 nM, 0.251 to 1 nM and under 100 nM, respectively.
On to `COc1cc2c(cc1Nc1nc(Nc3cc(F)cc(F)c3C(N)=O)c3cc[nH]c3n1)N(C(=O)CN(C)C)CCC2` [Example 178, 2-[(2-{[1-(N,N-dimethylglycyl)-6-(methyloxy)-1,2,3,4-tetrahydro-7-quinolinyl]amino}-1H-pyrrolo[2,3-d]pyrimidin-4-yl)amino]-4,6-difluorobenzamide], for which the IC50 was 0.251 to 1 nM in assay [1], 0.251 to 1 nM in assay [2] and under 100 nM in assay [3].
Regarding `CNC(=O)c1c(F)cc(F)cc1Nc1nc(Nc2cc3c(cc2OC)CCCN3C(=O)CN(C)C)nc2[nH]ccc12` [Example 179, 2-[(2-{[1-(N,N-dimethylglycyl)-6-(methyloxy)-1,2,3,4-tetrahydro-7-quinolinyl]amino}-1H-pyrrolo[2,3-d]pyrimidin-4-yl)amino]-4,6-difluoro-N-methylbenzamide], the IC50 was 0.251 to 1 nM in assay [1], 0.251 to 1 nM in assay [2] and under 100 nM in assay [3].
`CCNC(=O)c1c(F)cc(F)cc1Nc1nc(Nc2cc3c(cc2OC)CCCN3C(=O)CN(C)C)nc2[nH]ccc12` [Example 180, 2-[(2-{[1-(N,N-dimethylglycyl)-6-(methyloxy)-1,2,3,4-tetrahydro-7-quinolinyl]amino}-1H-pyrrolo[2,3-d]pyrimidin-4-yl)amino]-N-ethyl-4,6-difluorobenzamide]: the IC50 in assay [1] is 0.251 to 1 nM; in assay [2], 1.26 to 3.98 nM; in assay [3] it was under 100 nM.
For `COc1cc2c(cc1Nc1nc(Nc3cccc(F)c3C(N)=O)c3cc[nH]c3n1)N(C(=O)CN1CCOCC1)CC2` [Example 185, 2-fluoro-6-[(2-{[5-(methyloxy)-1-(4-morpholinylacetyl)-2,3-dihydro-1H-indol-6-yl]amino}-1H-pyrrolo[2,3-d]pyrimidin-4-yl)amino]benzamide], the results for the IC50 in assay [1], in assay [2] and in assay [3] were 5.01 to 200 nM, 5.01 to 158 nM and over 500 nM, respectively.
On to `COc1cc2c(cc1Nc1nc(Nc3cccc(F)c3C(N)=O)c3cc[nH]c3n1)N(C(=O)CN1CCN(C(C)C)CC1)CC2` [Example 186, 2-fluoro-6-[(2-{[1-{[4-(1-methylethyl)-1-piperazinyl]acetyl}-5-(methyloxy)-2,3-dihydro-1H-indol-6-yl]amino}-1H-pyrrolo[2,3-d]pyrimidin-4-yl)amino]benzamide], for which the figures for the IC50 in assay [1], in assay [2] and in assay [3] were 5.01 to 200 nM, 5.01 to 158 nM and over 500 nM, respectively.
With `COc1cc2c(cc1Nc1nc(Nc3cccc(F)c3C(N)=O)c3cc[nH]c3n1)N(C(=O)CCN1CCOCC1)CC2` [Example 187, 2-fluoro-6-{[2-({5-(methyloxy)-1-[3-(4-morpholinyl)propanoyl]-2,3-dihydro-1H-indol-6-yl}amino)-1H-pyrrolo[2,3-d]pyrimidin-4-yl]amino}benzamide], the IC50 in assay [1] was 5.01 to 200 nM; in assay [2], 5.01 to 158 nM; in assay [3], 100 to 500 nM.
The corresponding values for `COc1cc2c(cc1Nc1nc(Nc3cccc(F)c3C(N)=O)c3cc[nH]c3n1)N(C(=O)CCN1CCN(C(C)C)CC1)CC2` [Example 188, 2-fluoro-6-[(2-{[1-{3-[4-(1-methylethyl)-1-piperazinyl]propanoyl}-5-(methyloxy)-2,3-dihydro-1H-indol-6-yl]amino}-1H-pyrrolo[2,3-d]pyrimidin-4-yl)amino]benzamide] are 5.01 to 200 nM, 5.01 to 158 nM and over 500 nM.
